Laboratory results: patent US8293705B2, “HCV protease inhibitors and uses thereof” (Avila Therapeutics, Inc., priority 2007, dated 2012)
Where two headings read alike, the source gives them in different places.

Tests used:
[1] = target: T1, HCV NS3/4A 1b protease A156T (Hepatitis C virus genotype 1b, UniProt Q9WMX2, A1182T); assay: HCV protease FRET assay (IC50_APP), Example 16; assay type: biochemical
T1 construct: 10× stocks of NS3/4A protease enzyme from Bioenza (Mountain View, Calif.); purchased Bioenza (Mountain View, Calif.)
Description: (§1) The following protocol was used to generate “apparent” IC50 (IC50 APP) values as depicted in Table 6, below. […] 5 μL of each enzyme were added to Corning (#3575) 384-well, black, microtiter plates (Corning, N.Y.) after spotting a 0.5 μL volume of 50% DMSO and serially diluted compounds prepared in 50% DMSO. Protease reactions were immediately started after enzyme addition with the addition of 45 μL of the FRET substrate and monitored for 60-90 minutes at λex485/λem520 in a Synergy^4 plate reader from BioTek (Winooski, Vt.). At the conclusion of each assay, progress curves from each well were examined for linear reaction kinetics and fit statistics (R^2, 95% confidence intervals, absolute sum of squares).
(§2) The compound numbers correspond to the compound numbers in Table 3. […] ;

[2] = target: T2, HCV NS3/4A 1b protease D168A (Hepatitis C virus genotype 1b, UniProt Q9WMX2, D1194A); assay: HCV protease FRET assay (IC50_APP), Example 16; assay type: biochemical
T2 construct: 10× stocks of NS3/4A protease enzyme from Bioenza (Mountain View, Calif.); purchased Bioenza (Mountain View, Calif.)
Description: as §1, §2

[3] = target: T3, HCV NS3/4A 1b protease wild type (Hepatitis C virus genotype 1b, UniProt Q9WMX2); assay: HCV protease FRET assay (IC50_APP), Example 16; assay type: biochemical
T3 construct: 10× stocks of NS3/4A protease enzyme from Bioenza (Mountain View, Calif.); purchased Bioenza (Mountain View, Calif.)
Description: as §1, §2

HCV NS3/4A wild type = target: T4, HCV NS3/4A wild type (Hepatitis C virus genotype 1b, UniProt Q9WMX2); assay: Mass spectrometric analysis of covalent modification (MALDI-TOF); assay type: binding; conditions: 10× excess of test compound to protein; MALDI-TOF
T4 construct: HCV NS3/4A wild type (wt) was incubated for 1 hr at a 10× fold access of test compound to protein; purchased Bioenza, Calif
Description: Mass spectrometric analysis of HCV wild type or HCV variant C159S in the presence of test compound is performed. 100 pmols of HCV wild type (Bioenza, Calif.) is incubated with test compound for 1 hr and 3 hrs at 10-fold access of test compound to protein. 1 ul aliquots of the samples (total volume of 4.24 ul) are diluted with 10 ul of 0.1% TFA prior to micro C4 ZipTipping directly onto the MALDI target using Sinapinic acid as the desorption matrix (10 mg/mL in 0.1% TFA:Acetonitrile 50:50). Analyses are performed on a Shimadzu Biotech Axima TOF2 (Shimadzu Instruments) matrix-assisted-laser desorption/ionization Time-of-Flight (MALDI-TOF) mass spectrometer. The same procedure is carried out on 100 pmols of HCV C159S mutant of HCV protease for 3 hrs at 10-fold excess of test compound to protein.
As depicted in FIGS. 1 and 2, mass spectrometric analysis of HCV wild type in the presence of test compounds I-1 and I-25 was performed using the following protocol: HCV NS3/4A wild type (wt) was incubated for 1 hr at a 10× fold access of test compound to protein. 2 ul aliquots of the samples were diluted with 10 ul of 0.1% TFA prior to micro C4 ZipTipping directly onto the MALDI target using Sinapinic acid as the desorption matrix (10 mg/ml in 0.1% TFA:Acetonitrile 50:50). For intact protein mass measurement the instrument was set in linear mode using a pulsed extraction setting of 24,500 and apomyoglobin as the standard to calibrate the instrument.

[4] = target: T5, HCV NS3/4A 1b protease R155K (Hepatitis C virus genotype 1b, UniProt Q9WMX2, R1181K); assay: HCV protease FRET assay (IC50_APP), Example 16; assay type: biochemical; conditions: reaction started immediately after enzyme addition, read-out: Inhibition (apparent IC50, IC50_APP), HCV R155K
T5 construct: 10× stocks of NS3/4A protease enzyme from Bioenza (Mountain View, Calif.); purchased Bioenza (Mountain View, Calif.)
Description: as §1, §2

[5] = tested on: HCV RNA replicon in cell line ET (luc-ubi-neo/ET), human Huh7 hepatoma; assay: Replicon luciferase assay, Example 26; assay type: cell-based; conditions: Hepatitis C virus, Huh-7, assay of Example 26, 72 hr; for EC50: read-out: Inhibition, Replicon, EC50 value
Description: The compounds were assayed to evaluate the antiviral activity and cytotoxicity of compounds using replicon-derived luciferase activity. This assay used the cell line ET (luc-ubi-neo/ET), which is a human Huh7 hepatoma cell line that contains an HCV RNA replicon with a stable luciferase (Luc) reporter and cell culture-adaptive mutations. The ET cell line was grown in a 5% CO2 incubator at 37° C. in Dulbecco's modified essential media (DMEM) supplemented with 2 mM L-glutamine, nonessential amino acids, 100 U of penicillin/ml, 100 μg of streptomycin/mL, and 10% fetal bovine serum. G418 (Geneticin; Invitrogen) was added at a final concentration of 400 ug//mL.
All cell culture reagents were obtained from Invitrogen (Carlsbad). Cells were trypsinized (1% trypsin:EDTA) and plated out at 5×10^3 cells/well in white 96-well assay plates (Costar) dedicated to cell number (cytotoxicity) or antiviral activity assessments. Test compounds were added at six 3-fold concentrations each and the assay was run in DMEM, 5% FBS, 1% pen-strep, 1% glutamine, 1% non essential amino acid. Human interferon alpha-2b (PBL Biolabs, New Brunswick, N.J.) was included in each run as a positive control compound. Cells were processed 72 hr post test compound addition when the cells were still subconfluent. Antiviral activity was measured by analyzing replicon-derived luciferase activity using the Steady-Glo Luciferase Assay System (Promega, Madison, Wis.) according to manufacturer's instruction. The number of cells in each well was determined by Cell Titer Blue Assay (Promega). Compound profile was derived by calculating applicable EC50 (effective concentration inhibiting virus replication by 50%), EC90 (effective concentration inhibiting virus replication by 90%), IC50 (concentration decreasing cell viability by 50%) and SI50 (selective index: […]) values.

C=CC(=O)N[C@H](C)C(=O)N1C[C@H](OC(=O)N2Cc3cccc(F)c3C2)C[C@H]1C(=O)N[C@]1(C(=O)NS(=O)(=O)C2CC2)C[C@H]1C=C [Compound I-8, (3R,5S)-1-((R)-2-acrylamidopropanoyl)-5-((1R,2S)-1-(cyclopropylsulfonylcarbamoyl)-2-vinylcyclopropylcarbamoyl)pyrrolidin-3-yl-4-fluoroisoindoline-2-carboxylate]
IC50 [1]: < 10 nM
IC50 [2]: < 10 nM
IC50 [3]: < 10 nM
Covalent modification of HCV NS3/4A wild type (HCV NS3/4A wild type): measurable covalent modification

C=CC(=O)N[C@@H](C(=O)N1C[C@H](OC(=O)N2Cc3cccc(F)c3C2)C[C@H]1C(=O)N[C@]1(C(=O)NS(=O)(=O)C2CC2)C[C@H]1C=C)C(C)C [Compound I-9, (3R,5S)-1-((R)-2-acrylamido-3-methylbutanoyl)-5-((1R,2S)-1-(cyclopropylsulfonylcarbamoyl)-2-vinylcyclopropylcarbamoyl)pyrrolidin-3-yl-4-fluoroisoindoline-2-carboxylate]
IC50 [1]: < 10 nM
IC50 [2]: 10 to 100 nM
IC50 [3]: < 10 nM
Covalent modification of HCV NS3/4A wild type (HCV NS3/4A wild type): measurable covalent modification

C=C[C@@H]1C[C@]1(NC(=O)[C@@H]1C[C@@H](OC(=O)N2Cc3cccc(F)c3C2)CN1C(=O)CNC(=O)c1ccccc1OC(C)=O)C(=O)NS(=O)(=O)C1CC1 [Compound I-10, (3R,5S)-1-(2-(2-acetoxybenzamido)acetyl)-5-((1R,2S)-1-(cyclopropylsulfonylcarbamoyl)-2-vinylcyclopropylcarbamoyl)pyrrolidin-3-yl-4-fluoroisoindoline-2-carboxylate]
IC50 [1]: 1000 to 10000 nM
IC50 [2]: 1000 to 10000 nM
IC50 [3]: 100 to 1000 nM
Covalent modification of HCV NS3/4A wild type (HCV NS3/4A wild type): measurable covalent modification

C=C[C@@H]1C[C@]1(NC(=O)[C@@H]1CC(OC(=O)N2Cc3cccc(F)c3C2)CN1C(=O)[C@H](CCC(=O)/C=C/C)NC(=O)OC(C)(C)C)C(=O)NS(=O)(=O)C1CC1 (stereo partly shown) [Compound I-26]
IC50 [1]: < 10 nM
IC50 [2]: < 10 nM
IC50 [3]: < 10 nM
Covalent modification of HCV NS3/4A wild type (HCV NS3/4A wild type): measurable covalent modification

CC(C)(C)OC(=O)N[C@H]1CCCN(S(=O)(=O)c2ccccc2[N+](=O)[O-])C/C=C\[C@@H]2C[C@@]2(C(=O)NS(=O)(=O)C2CC2)NC(=O)[C@@H]2CC(OC(=O)N3Cc4cccc(F)c4C3)CN2C1=O (stereo partly shown) [Compound I-54]
IC50 ([2]; read-out: Inhibition (apparent IC50, IC50_APP), HCV D168A, FRET, reaction started immediately after enzyme addition): 10 to 100 nM
IC50 [4]: 10 to 100 nM
IC50 ([3]; read-out: Inhibition (apparent IC50, IC50_APP), WT, FRET, reaction started immediately after enzyme addition): < 10 nM
EC50 [5]: 100 to 1000 nM
EC90 ([5]; read-out: Inhibition, Replicon, EC90 value): > 10000 nM

C=C[C@@H]1C[C@]1(NC(=O)[C@@H]1C[C@@H]2CN1C(=O)[C@H](CCC(=O)C=C(C)C)NC(=O)OCC(C)(C)CC/C=C/c1cccc3c1CN(C3)C(=O)O2)C(=O)NS(=O)(=O)C1CC1 [Compound I-55]
IC50 [1]: < 10 nM
IC50 [2]: 10 to 100 nM
IC50 [4]: 10 to 100 nM
IC50 [3]: < 10 nM
EC50 [5]: < 10 nM

CC[C@@H]1C[C@]1(NC(=O)[C@@H]1C[C@@H]2CN1C(=O)[C@H](CCC(=O)C=C(C)C)NC(=O)OCC(C)(C)CC/C=C/c1cccc3c1CN(C3)C(=O)O2)C(=O)NS(=O)(=O)C1CC1 [Compound I-56]
IC50 [2]: 100 to 1000 nM
IC50 [4]: 100 to 1000 nM
IC50 [3]: < 10 nM
EC50 [5]: < 10 nM

C=C[C@@H]1C[C@]1(NC(=O)[C@@H]1CC(OC(=O)N2Cc3cccc(F)c3C2)CN1C(=O)[C@H](CC(=O)C(=C)C)NC(=O)OC(C)(C)C)C(=O)NS(=O)(=O)C1CC1 (stereo partly shown) [Compound I-68]
IC50 [2]: < 10 nM
IC50 [4]: < 10 nM
IC50 [3]: < 10 nM
EC50 [5]: 100 to 1000 nM

C=C(C)C(=O)C[C@H](NC(=O)OC(C)(C)C)C(=O)N1CC(OC(=O)N2Cc3cccc(F)c3C2)C[C@H]1C(=O)N[C@]1(C(=O)NS(=O)(=O)C2CC2)C[C@H]1CC (stereo partly shown) [Compound I-69]
IC50 [2]: 10 to 100 nM
IC50 [4]: < 10 nM
IC50 [3]: < 10 nM
EC50 [5]: 100 to 1000 nM

C=C[C@@H]1C[C@]1(NC(=O)[C@@H]1CC(OC(=O)N2Cc3cccc(F)c3C2)CN1C(=O)[C@H](CCC(=O)/C=C\C(C)(C)C)NC(=O)OC(C)(C)C)C(=O)NS(=O)(=O)C1CC1 (stereo partly shown) [Compound I-71]
IC50 [2]: 100 to 1000 nM
IC50 [4]: 100 to 1000 nM
IC50 [3]: < 10 nM
EC50 [5]: < 10 nM

C=C[C@@H]1C[C@]1(NC(=O)[C@@H]1C[C@@H]2CN1C(=O)[C@H](CC(=O)C=C(C)C)NC(=O)OCC(C)(C)CC/C=C/c1cccc3c1CN(C3)C(=O)O2)C(=O)NS(=O)(=O)C1CC1 [Compound I-79]
IC50 [2]: 10 to 100 nM
IC50 [4]: < 10 nM
IC50 [3]: < 10 nM
EC50 [5]: < 10 nM
